According to PMC4296974 (Bioorganic & medicinal chemistry letters, 2014):

Assays:
rNTS2 [1] = biological target: T1, rNTS2 (Rattus norvegicus, UniProt Q63384); assay: FLIPR calcium mobilization assay in CHO cell line stably expressing rNTS2; assay type: cell-based
T1 sequence (Q63384 1-416): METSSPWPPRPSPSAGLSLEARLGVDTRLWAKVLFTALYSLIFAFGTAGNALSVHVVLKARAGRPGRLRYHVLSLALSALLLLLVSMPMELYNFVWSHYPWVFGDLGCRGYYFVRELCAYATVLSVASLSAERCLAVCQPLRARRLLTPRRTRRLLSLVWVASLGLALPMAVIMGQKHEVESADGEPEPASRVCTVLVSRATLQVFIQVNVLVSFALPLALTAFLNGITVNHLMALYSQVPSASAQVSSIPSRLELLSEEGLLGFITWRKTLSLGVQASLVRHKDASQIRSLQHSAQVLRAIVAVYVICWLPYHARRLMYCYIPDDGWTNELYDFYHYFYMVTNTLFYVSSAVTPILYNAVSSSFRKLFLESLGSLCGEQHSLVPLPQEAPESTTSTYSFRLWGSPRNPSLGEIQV

rNTS2 [2] = biological target: T1, rNTS2; details: Emax value is % of 4; cited from earlier work
rNTS1 = rNTS1 (Rattus norvegicus, UniProt P20789); details: read-out: Binding Assay NTS1 Ki; [125I]NT, bound; cited from earlier work
rNTS1, sequence (P20789 whole entry): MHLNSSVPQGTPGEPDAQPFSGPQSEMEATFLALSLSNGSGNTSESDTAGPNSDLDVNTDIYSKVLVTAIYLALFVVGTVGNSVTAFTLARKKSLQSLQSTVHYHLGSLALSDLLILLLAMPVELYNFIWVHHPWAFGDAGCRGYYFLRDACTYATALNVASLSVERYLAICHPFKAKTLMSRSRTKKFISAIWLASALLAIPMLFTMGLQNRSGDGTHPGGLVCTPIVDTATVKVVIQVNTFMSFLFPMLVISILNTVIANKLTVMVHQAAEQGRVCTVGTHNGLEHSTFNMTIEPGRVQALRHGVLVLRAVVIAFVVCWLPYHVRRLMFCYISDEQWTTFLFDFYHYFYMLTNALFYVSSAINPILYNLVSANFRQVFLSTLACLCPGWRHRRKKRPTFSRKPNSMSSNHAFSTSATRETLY

NTS1 = NTS1 (Rattus norvegicus, UniProt P20789); assay: FLIPR calcium mobilization assay at NTS1; assay type: cell-based; details: 17: agonist and antagonist screen at 10 μM; 9, 14b, 16b: data not shown
NTS1, sequence (P20789 whole entry): as above

rNTS2 [3] = biological target: T1, rNTS2; assay: [125I]NT competition binding assay at NTS2; details: relative to 9

COc1cccc(OC)c1-c1cc(C(=O)N[C@@H](CC(C)C)C(=O)O)nn1-c1ccc(F)cc1 [Compound 21, reference compound]
inhibition at 10 µM (rNTS2 [1]; CHO, read-out: % inhibition of calcium release mediated by 4 at NTS2): < 30%

C[C@@H]1CN([C@H]2CC[C@](C#N)(c3ccc(F)cc3)CC2)CC[C@]1(C(=O)O)c1ccccc1 [Compound 5, levocabastine]
FLIPR Assay NTS2 Emax (rNTS2 [2]): 16±3% | Ki (rNTS1): > 25 µM

O=C(O)c1cc(Nc2nc(-c3ccccc3)c3cc(Cl)ccc3n2)ccc1O [Compound 17]
Activity in the calcium mobilization assay at NTS1 (NTS1): devoid of activity

COc1cccc(OC)c1-c1nc(C(=O)NC2(C(=O)O)CCCCC2)nc2ccc(Cl)cc12 [Compound 16b]
Fold lower activity than 9 in NTS2 FLIPR assay (EC50) (rNTS2 [1]; relative to 9): roughly 10 fold | Fold weaker than 9 in NTS2 binding (Ki) (rNTS2 [3]): 11 fold | Activity in the calcium mobilization assay at NTS1 (NTS1): failed to show activity

COc1cccc(OC)c1-c1nc(C(=O)N[C@H](C(=O)O)C2CCCCC2)nc2ccc(Cl)cc12 [Compound 14b]
Fold less active than NT in the NTS2 functional assay (rNTS2 [1]; IC50 comparison with NT): 25 fold | Fold weaker than 9 in NTS2 binding (Ki) (rNTS2 [3]): 5 fold | Activity in the calcium mobilization assay at NTS1 (NTS1): failed to show activity

COc1cccc(OC)c1-c1cc(C(=O)NC2(C(=O)O)C3CC4CC(C3)CC2C4)nn1-c1ccc(C(=O)N(C)CCCN(C)C)cc1C(C)C (centres unmarked) [Compound 4, reference compound]
Emax (rNTS2 [1]; CHO, read-out: FLIPR Assay NTS2 Emax): 100 ± 5%
